# Values joined by “and” are separate entries in the source; they are usually repeats but may differ in a detail not shown here. Equal entries are not always repeated. Inconclusive results and toxic doses are left out.
# Test system: P388 leukemia ip, CD2F1 mice, survival T/C
# Experiment: NCI In Vivo Anticancer Drug Screen. Data for tumor model P388 Leukemia (intraperitoneal) in CD2F1 (CDF1) mice
# Details: endpoint: median survival time, higher = longer survival
# Method in brief: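 Mice carrying the transplanted tumor received test compound or vehicle. Survival was recorded in each group, and the value is the treated-group measurement divided by that of the vehicle-treated control group.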
# [1] = dose: 100.0 mg/kg/injection, schedule: Q04DX003 (ip), vehicle: saline with Tween-80
# [2] = dose: 200.0 mg/kg/injection, schedule: Q04DX003 (ip), vehicle: saline with Tween-80
# [3] = dose: 400.0 mg/kg/injection, schedule: Q04DX003 (ip), vehicle: saline with Tween-80
# [4] = dose: 12.5 mg/kg/injection, schedule: Q01DX009 (ip), vehicle: Klucel (hydroxypropylcellulose) (HPC)
# [5] = dose: 25.0 mg/kg/injection, schedule: Q01DX009 (ip), vehicle: Klucel (hydroxypropylcellulose) (HPC)
# [6] = dose: 25.0 mg/kg/injection, schedule: Q01DX009 (ip), vehicle: saline
# [7] = dose: 50.0 mg/kg/injection, schedule: Q01DX009 (ip), vehicle: saline with Tween-80
# [8] = dose: 50.0 mg/kg/injection, schedule: Q01DX009 (ip), vehicle: saline
# [9] = dose: 100.0 mg/kg/injection, schedule: Q01DX009 (ip), vehicle: saline
# [10] = dose: 100.0 mg/kg/injection, schedule: Q04DX003 (ip), vehicle: saline
# [11] = dose: 200.0 mg/kg/injection, schedule: Q04DX003 (ip), vehicle: saline
# [12] = dose: 400.0 mg/kg/injection, schedule: Q04DX003 (ip), vehicle: saline
# [13] = dose: 100.0 mg/kg/injection, schedule: Q01DX009 (ip), vehicle: saline with Tween-80
# [14] = dose: 200.0 mg/kg/injection, schedule: Q01DX009 (ip), vehicle: saline with Tween-80
# [15] = dose: 60.0 mg/kg/injection, schedule: Q01DX005 (ip), vehicle: Klucel (hydroxypropylcellulose) (HPC)
# [16] = dose: 120.0 mg/kg/injection, schedule: Q01DX005 (ip), vehicle: Klucel (hydroxypropylcellulose) (HPC)
# [17] = dose: 240.0 mg/kg/injection, schedule: Q01DX005 (ip), vehicle: Klucel (hydroxypropylcellulose) (HPC)
# [18] = dose: 50.0 mg/kg/injection, schedule: Q01DX005 (ip), vehicle: Klucel (hydroxypropylcellulose) (HPC)
# [19] = dose: 100.0 mg/kg/injection, schedule: Q01DX005 (ip), vehicle: Klucel (hydroxypropylcellulose) (HPC)
# [20] = dose: 200.0 mg/kg/injection, schedule: Q01DX005 (ip), vehicle: Klucel (hydroxypropylcellulose) (HPC)
# [21] = dose: 50.0 mg/kg/injection, schedule: Q01DX009 (ip), vehicle: Klucel (hydroxypropylcellulose) (HPC)
# [22] = dose: 100.0 mg/kg/injection, schedule: Q01DX009 (ip), vehicle: Klucel (hydroxypropylcellulose) (HPC)
# [23] = dose: 200.0 mg/kg/injection, schedule: Q01DX009 (ip), vehicle: Klucel (hydroxypropylcellulose) (HPC)
# [24] = dose: 60.0 mg/kg/injection, schedule: Q01DX005 (ip), vehicle: saline
# [25] = dose: 120.0 mg/kg/injection, schedule: Q01DX005 (ip), vehicle: saline
# [26] = dose: 240.0 mg/kg/injection, schedule: Q01DX005 (ip), vehicle: saline
structure (smiles),measurement,setting,value
O=C(c1ccc(Cl)cc1)n1c(Cl)c(/C=N\Nc2ccc([N+](=O)[O-])cc2)c2ccccc21,T/C,[1],94 % of control
same,T/C,[2],97 % of control
same,T/C,[3],92 % of control
C/C(=N\NC(=S)N(C)C)c1ncccn1,T/C,"dose: 12.5 mg/kg/injection, schedule: Q04DX003 (ip), vehicle: Klucel (hydroxypropylcellulose) (HPC)",107 % of control
same,T/C,"dose: 25.0 mg/kg/injection, schedule: Q04DX003 (ip), vehicle: Klucel (hydroxypropylcellulose) (HPC)",103 % of control
same,T/C,"dose: 50.0 mg/kg/injection, schedule: Q04DX003 (ip), vehicle: Klucel (hydroxypropylcellulose) (HPC)",105 % of control
COc1cccc2c1NC(OC)C1CC(/C=C/C(=O)N(C)C)=CN1C2=O (configuration not stated),T/C,"dose: 320.0 micrograms/kg/injection, schedule: Q01DX005 (ip), vehicle: saline with Tween-80",155 % of control
S=C(Nc1nccs1)Nc1nccs1,T/C,"dose: 3.13 mg/kg/injection, schedule: Q01DX009 (ip), vehicle: Klucel (hydroxypropylcellulose) (HPC)",98 % of control
same,T/C,"dose: 6.25 mg/kg/injection, schedule: Q01DX009 (ip), vehicle: Klucel (hydroxypropylcellulose) (HPC)",98 % of control
same,T/C,[4],95 % of control
same,T/C,[5],92 % of control
O=C(NNC(=O)c1ccc(Cl)cc1Cl)c1ccco1,T/C,"dose: 12.5 mg/kg/injection, schedule: Q01DX009 (ip), vehicle: saline",100 % of control
same,T/C,[6],102 % of control and 89 % of control
same,T/C,[7],100 % of control
same,T/C,[8],102 % of control and 97 % of control
CC(=O)Cc1c(-c2ccccc2)nc(=S)[nH]c1C,T/C,[8],100 % of control and 97 % of control
same,T/C,[9],91 % of control and 92 % of control
same,T/C,"dose: 200.0 mg/kg/injection, schedule: Q01DX009 (ip), vehicle: saline",100 % of control and 94 % of control and 96 % of control
O=C1N[C@H]2CS(=O)(=O)C[C@H]2N1,T/C,"dose: 50.0 mg/kg/injection, schedule: Q01DX005 (ip), vehicle: saline with Tween-80",100 % of control
same,T/C,"dose: 100.0 mg/kg/injection, schedule: Q01DX005 (ip), vehicle: saline with Tween-80",104 % of control
same,T/C,"dose: 200.0 mg/kg/injection, schedule: Q01DX005 (ip), vehicle: saline with Tween-80",93 % of control
COc1ccccc1N1CCN(CCc2c[nH]c3cc4c(cc23)OCO4)CC1,T/C,"dose: 6.25 mg/kg/injection, schedule: Q01DX009 (ip), vehicle: saline with Tween-80",92 % of control
same,T/C,"dose: 12.5 mg/kg/injection, schedule: Q01DX009 (ip), vehicle: saline with Tween-80",100 % of control
same,T/C,"dose: 12.5 mg/kg/injection, schedule: Q04DX003 (ip), vehicle: saline with Tween-80",114 % of control
same,T/C,"dose: 18.75 mg/kg/injection, schedule: Q01DX009 (ip), vehicle: Klucel (hydroxypropylcellulose) (HPC)",108 % of control
same,T/C,"dose: 25.0 mg/kg/injection, schedule: Q01DX009 (ip), vehicle: saline with Tween-80",101 % of control
same,T/C,"dose: 25.0 mg/kg/injection, schedule: Q04DX003 (ip), vehicle: saline with Tween-80",120 % of control
same,T/C,"dose: 37.5 mg/kg/injection, schedule: Q01DX009 (ip), vehicle: Klucel (hydroxypropylcellulose) (HPC)",101 % of control
same,T/C,[7],104 % of control
same,T/C,"dose: 50.0 mg/kg/injection, schedule: Q04DX003 (ip), vehicle: saline with Tween-80",123 % of control
same,T/C,"dose: 75.0 mg/kg/injection, schedule: Q01DX009 (ip), vehicle: Klucel (hydroxypropylcellulose) (HPC)",88 % of control
same,T/C,[1],121 % of control
O=C(CCS(=O)O)c1cccs1,T/C,[10],99 % of control
same,T/C,[11],96 % of control
same,T/C,[12],92 % of control
COC(=O)/C=C1\C(=O)OC2(C)CCCCC12 (configuration not stated),T/C,[7],95 % of control
same,T/C,[13],97 % of control
same,T/C,[14],100 % of control
CC(C)CN1CCOCC1,T/C,[6],100 % of control
same,T/C,[8],95 % of control
same,T/C,[9],104 % of control
O=C1C2CC=CCC2C(=O)N1CC[P+](c1ccccc1)(c1ccccc1)c1ccccc1 (configuration not stated),T/C,"dose: 0.78 mg/kg/injection, schedule: Q01DX009 (ip), vehicle: water",100 % of control
same,T/C,"dose: 1.56 mg/kg/injection, schedule: Q01DX009 (ip), vehicle: water",102 % of control and 95 % of control
same,T/C,"dose: 3.13 mg/kg/injection, schedule: Q01DX009 (ip), vehicle: water",102 % of control and 106 % of control
same,T/C,"dose: 6.25 mg/kg/injection, schedule: Q01DX009 (ip), vehicle: water",112 % of control
same,T/C,"dose: 12.5 mg/kg/injection, schedule: Q01DX009 (ip), vehicle: water",115 % of control and 116 % of control
same,T/C,"dose: 25.0 mg/kg/injection, schedule: Q01DX009 (ip), vehicle: water",115 % of control
CC(=O)OC1CSc2ccccc2N(C(C)=O)C1 (configuration not stated),T/C,[15],104 % of control
same,T/C,[16],99 % of control
same,T/C,[17],107 % of control
C[Si](C)(C)C12CC3(CCCCC3)C1NC(=O)NC2=O (configuration not stated),T/C,"dose: 25.0 mg/kg/injection, schedule: Q01DX005 (ip), vehicle: Klucel (hydroxypropylcellulose) (HPC)",108 % of control
same,T/C,[18],96 % of control
same,T/C,[19],90 % of control
same,T/C,[20],88 % of control
C/C=c1/[nH]c(=O)/c(=C\C=C\c2ccccc2)[nH]c1=O,T/C,[5],106 % of control and 91 % of control
same,T/C,[21],104 % of control and 91 % of control
same,T/C,[22],88 % of control and 91 % of control and 95 % of control
same,T/C,[23],97 % of control
CC(=O)n1[nH]c(=O)ccc1=O,T/C,[10],115 % of control
same,T/C,[11],107 % of control
same,T/C,[12],115 % of control
C1Cc2onc(-c3noc4c3CCC4)c2C1,T/C,[24],104 % of control
same,T/C,[25],96 % of control
same,T/C,[26],99 % of control
Cc1cn[nH]c(=O)c1,T/C,[7],99 % of control
same,T/C,[13],99 % of control
same,T/C,[14],99 % of control
O=C1/C(=C/c2cccs2)CCc2ccccc21,T/C,[15],100 % of control
same,T/C,[16],107 % of control
same,T/C,[17],98 % of control
CCN(CC)Cc1c2c(O)c3c(O)c(C)c4c(c3c1O)C(=O)C(C)(O/C=C/C(OC)C(C)C(OC(C)=O)C(C)C(O)C(C)C(O)C(C)/C=C/C=C(\C)C(=O)N2)O4 (configuration not stated),T/C,[4],115 % of control
same,T/C,[5],93 % of control
same,T/C,[18],103 % of control
same,T/C,[21],91 % of control
same,T/C,[7],110 % of control
same,T/C,[19],106 % of control
same,T/C,[22],86 % of control
same,T/C,[13],90 % of control
same,T/C,[20],94 % of control
same,T/C,[14],97 % of control
same,T/C,"dose: 400.0 mg/kg/injection, schedule: Q01DX009 (ip), vehicle: Klucel (hydroxypropylcellulose) (HPC)",111 % of control
O=c1[nH]nc(-c2ccc(Br)cc2)s1,T/C,[1],98 % of control
same,T/C,[2],100 % of control
same,T/C,[3],99 % of control
CCCCCCCC[N+]1([O-])CC[N+](C)([O-])CC1 (configuration not stated),T/C,[24],100 % of control
same,T/C,[25],101 % of control
same,T/C,[26],102 % of control
CC1CCc2c(c3ccc(O)cc3oc2=O)C1 (configuration not stated),T/C,[18],101 % of control
same,T/C,[19],96 % of control
same,T/C,[20],92 % of control
Cc1ccc(S(=O)(=O)OC2C(COCC(=O)O)OC3OC(C)(C)OC32)cc1 (configuration not stated),T/C,[1],95 % of control
same,T/C,[2],95 % of control
same,T/C,[3],90 % of control
COc1cc(C=Nc2cc(Cl)cc(Cl)c2)ccc1N(CCCl)CCCl,T/C,[1],159 % of control and 172 % of control
same,T/C,[2],181 % of control and 222 % of control
same,T/C,"dose: 300.0 mg/kg/injection, schedule: Q04DX003 (ip), vehicle: saline with Tween-80",204 % of control
[Cu+2].[NH-]C(CC(=O)O)C(=O)O.[NH-]C(CC(=O)O)C(=O)O (configuration not stated),T/C,"dose: 7.5 mg/kg/injection, schedule: Q01DX005 (ip), vehicle: saline with Tween-80",98 % of control
same,T/C,"dose: 15.0 mg/kg/injection, schedule: Q01DX005 (ip), vehicle: saline with Tween-80",100 % of control
same,T/C,"dose: 30.0 mg/kg/injection, schedule: Q01DX005 (ip), vehicle: saline with Tween-80",111 % of control
Cln1c2c(c3ccccc31)CN(Cc1ccccc1)CC2,T/C,[21],105 % of control
same,T/C,[22],106 % of control
same,T/C,[23],97 % of control

# From PubChem BioAssay AID330 (DTP/NCI, 2004)
